From patent US7196084B2, “Cdc25 phosphatase inhibitors” (Societe de Conseils de Recherches et d'Applications …, priority 2000, dated 2007)
Counter-ions that a name gives are not always drawn.

Assays:
[1] = system: Mia-PaCa2 (human pancreatic cancer cells); test: Anti-proliferative activity, WST1 colorimetric test, Mia-PaCa2; format: cell-based; settings: MIA PaCa-2, treated for 96 hours, read-out: IC50 on the cell proliferation of Mia-Paca2 lines
Protocol: (§1) c) Characterization of the Anti-proliferative Activity:
(§2) By way of example, the effect of a treatment on two lines of human Mia-Paca2 and DU145 cells with compounds of Examples 1–5 described previously will be studied. The cell lines DU145 (human prostate cancer cells) and Mia-PaCa2 (human pancreatic cancer cells) were acquired from the American Tissue Culture Collection (Rockville, Md., USA). The cells placed in 80 μL of Dulbecco's modified Eagle medium (Gibco-Brl, Cergy-Pontoise, France) completed with 10% foetal calf serum inactivated by heating (Gibco-Brl, Cergy-Pontoise, France), 50000 units/l of penicillin and 50 mg/l streptomycin (Gibco-Brl, Cergy-Pontoise, France), and 2 mM of glutamine (Gibco-Brl, Cergy-Pontoise, France) were seeded on a 96-well plate on day 0. The cells were treated on day 1 for 96 hours with increasing concentrations of each of the compounds to be tested up to 50 μg/ml. At the end of this period, quantification of cell proliferation is evaluated by a colorimetric test based on the cleavage of the tetrazolium salt WST1 by mitochondrial dehydrogenases in viable cells leading to the formation of formazan (Boehringer Mannheim, Meylan, France). These tests are carried out in duplicate with 8 determinations per concentration tested. For each compound to be tested, the values included in the linear part of the sigmoid were retained for linear regression analysis and used to estimate the inhibitory concentration IC50. The products are solubilized in dimethylsulphoxide (DMSO) at 10^−2 M and finally used in culture with 0.5% DMSO.

[2] = system: DU145 (human prostate cancer cells); test: Anti-proliferative activity, WST1 colorimetric test, DU145; format: cell-based; settings: DU-145, treated for 96 hours, read-out: IC50 on the cell proliferation of DU-145 lines
Protocol: as §1, §2

[3] = system: phosphorylation of cdc2 in the Mia PaCa-2 line (endogenous cdc25C phosphatase of human cells); test: Measurement of the state of cdc2 phosphorylation (western blot); format: cell-based; settings: Mia-Paca2 cells treated with increasing concentrations, sampling 24 hours later, FIG. 1; menadione as reference inhibitor
Protocol: b) Measurement of the State of cdc2 Phosphorylation:
This relates to showing that the enzymatic activity of cdc25-C phosphatase is inhibited in vivo […] in the presence of selected inhibitors.
The cells of the Mia PaCa2 line are seeded at a rate of 450 000 cells in 10 cm Petri dishes in Dulbecco's modified Eagle medium completed with 10% foetal calf serum. 48 hours later, the cells are treated for 1 hour with the compound to be tested or menadione at 100 μM (reference inhibitor). The medium is renewed after washing with PBS. 24 hours after the cells are scraped and lysed in the lysis buffer (Hepes 50 mM pH 7.5; NaCl 10 mM; Triton X100 1%; glycerol 10%; MgCl2 5 mM; EDTA 1 mM; sodium orthovanadate 1 mM; protease inhibitor cocktail 1836170 Roche Diagnostics). After centrifugation at 13 000 rpm for 10 minutes at 4° C., the concentration of proteins is determined in the supernatant (Bio-Rad DC Protein assay kit) and adjusted to 10 μg. The load buffer concentrated 5 times (Tris HCl 125 mM pH 7.4; SDS 10%; glycerol 50%; bromophenol blue 0.025%; β-mercaptoethanol 7%) is added to the samples. The samples are heated for 10 minutes at 100° C. The samples are deposited in a volume of 40 μl on Tris/Glycine 12% gels (BioRad). Migration occurs over 1 hour at 180 V. The proteins are transferred onto a nitrocellulose membrane (Hybond C, Amersham) under semi-dry conditions. […]

Compound	melting point	IC50 [1]	IC50 [2]	increase of the phosphorylated form of cdc2 [3]
CN1CCN(c2ccc(NC(=O)CCCc3ccc(N)cc3)cc2)CC1.Cl [Example 5, 4-(4-aminophenyl)-N-[4-(4-methyl-1-piperazinyl)phenyl]butanamide hydrochloride]	156 to 158 °C	–	–	–
CN(C)c1ccc(O)c(CNCCc2ccc([N+](=O)[O-])cc2)c1 [Example 7, 4-(dimethylamino)-2-({[2-(4-nitrophenyl)ethyl]amino}methyl)phenol]	–	≤ 100 µM	–	–
CCOP(=O)(OCC)Oc1ccc(CCNC(=O)c2cc3cc(O)ccc3cc2O)cc1 [Example 13, diethyl 4-{2-[(3,7-dihydroxy-2-naphthoyl)amino]ethyl}phenylphosphate]	192 to 194 °C	≤ 100 µM	≤ 100 µM	–
CN(CCc1ccc([N+](=O)[O-])cc1)Cc1cc(O)ccc1O [Example 9, 2-({methyl [2-(4-nitrophenyl)ethyl]amino}methyl)-1,4-benzenediol]	–	≤ 100 µM	–	–
COc1cc(CN(C)CCc2ccc([N+](=O)[O-])cc2)cc(N(C)C)c1O [Example 8, 2-(dimethylamino)-6-methoxy-4-({methyl[2-(4-nitrophenyl)ethyl]amino}methyl)phenol]	–	≤ 100 µM	–	–
COc1cc(N(C)C)cc(CN(C)CCc2ccc([N+](=O)[O-])cc2)c1OC(C)=O [Example 10, 4-(dimethylamino)-2-methoxy-6-({methyl[2-(4-nitrophenyl)ethyl]amino}methyl)phenyl acetate]	–	≤ 100 µM	–	–
CN(C)c1ccc(NC(=O)CCNCc2cccc(N=C(N)c3cccs3)c2)cc1 [Example 4, 3-[(3-{[amino(2-thienyl)methylidene]amino}-benzyl)amino]-N-[4-(dimethylamino)phenyl]propanamide hydrochloride]	–	≤ 100 µM	–	–
COc1cc(N(C)C)cc(CNCCc2ccc([N+](=O)[O-])cc2)c1O [Example 6, 4-(dimethylamino)-2-methoxy-6-({[2-(4-nitrophenyl)ethyl]amino}methyl)phenol]	–	≤ 100 µM	–	–
CC1=CC(=O)c2ccccc2C1=O [menadione, reference compound]	–	–	–	increase
CN(CCc1ccc([N+](=O)[O-])cc1)Cc1cc(N(C)C)ccc1O [Example 2, 4-(dimethylamino)-2-({methyl[2-(4-nitrophenyl)ethyl]amino}methyl)phenol]	–	≤ 100 µM	–	–
COc1cc(N(C)C)cc(CN(C)CCc2ccc([N+](=O)[O-])cc2)c1O [Example 1, 4-(dimethylamino)-2-methoxy-6-({methyl[2-(4-nitrophenyl)ethyl]-amino}methyl)phenol]	91 to 93 °C	≤ 100 µM	–	growing increase of the phosphorylated form of cdc2

Now from value to molecule, other results behind:

melting point	IC50 [1]	IC50 [2]	Compound	increase of the phosphorylated form of cdc2 [3]
193 to 195 °C	≤ 100 µM	–	CCCCS(=O)(=O)Nc1ccc(CCNC(=O)c2cc3cc(O)ccc3cc2O)cc1 [Example 17, N-(2-{4-[(butylsulphonyl)amino]phenyl}ethyl)-3,7-dihydroxy-2-naphthamide]	–
> 250 °C	≤ 100 µM	–	O=C(NCCc1ccc([N+](=O)[O-])cc1)c1cc2cc(O)ccc2cc1O [Example 11, 3,7-dihydroxy-N-[2-(4-nitrophenyl)ethyl]-2-naphthamide]	–
135 to 137 °C	≤ 100 µM	–	Cc1ccc(S(=O)(=O)N2CCN(C(=O)c3cc4cc(O)ccc4cc3O)CC2)cc1 [Example 31, 3-({4-[(4-methylphenyl)sulphonyl]piperazin-1-yl}carbonyl) naphthalene-2,6-diol]	–
–	≤ 100 µM	≤ 100 µM	O=C(NCCc1ccc(NS(=O)(=O)c2cccc(C(F)(F)F)c2)cc1)c1cc2cc(O)ccc2cc1O [Example 22, 3,7-dihydroxy-N-{2-[4-({[3-(trifluoromethyl)phenyl]sulphonyl}amino)phenyl]ethyl}-2-naphthamide]	–
176 to 178 °C	≤ 100 µM	–	CS(=O)(=O)Nc1ccc(CCNC(=O)c2cc3cc(O)ccc3cc2O)cc1 [Example 16, 3,7-dihydroxy-N-(2-{4-[(methylsulphonyl)amino]phenyl}ethyl)-2-naphthamide]	–
–	≤ 100 µM	–	O=C(NCCc1ccc(NS(=O)(=O)c2ccc(F)cc2)cc1)c1cc2cc(O)ccc2cc1O [Example 28, N-[2-(4-{[(4-fluorophenyl)sulphonyl]amino}phenyl)ethyl]-3,7-dihydroxy-2-naphthamide]	–
–	≤ 100 µM	–	CC1CCN(S(=O)(=O)c2cccc(CNC(=O)c3cc4cc(O)ccc4cc3O)c2)CC1 [Example 29, 3,7-dihydroxy-N-{3-[(4-methyl-1-piperidinyl)sulphonyl]benzyl}-2-naphthamide]	–
145 to 148 °C	≤ 100 µM	–	CN(C)c1ccccc1NC(=O)CCCCc1ccc(/N=C(/N)c2cccs2)cc1.Cl [Example 30, 5-(4-{[(1E)-amino(2-thienyl)methylidene]amino}phenyl)-N-[2-(dimethylamino)phenyl]pentanamide hydrochloride]	–
182 to 184 °C	≤ 100 µM	–	Cc1ccc(S(=O)(=O)Nc2ccc(CCNC(=O)c3cc4cc(O)ccc4cc3O)cc2)cc1 [Example 18, 3,7-dihydroxy-N-[2-(4-{[(4-methylphenyl)sulphonyl]amino}phenyl)ethyl]-2-naphthamide]	–
–	≤ 100 µM	≤ 100 µM	NS(=O)(=O)c1ccc(CCNC(=O)c2cc3cc(O)ccc3cc2O)cc1 [Example 14, N-{2-[4-(aminosulphonyl)phenyl]ethyl}-3,7-dihydroxy-2-naphthamide]	–
124 to 126 °C	–	–	CS(=O)(=O)N1CCN(C(=O)c2cc3cc(O)ccc3cc2O)CC1 [Example 32, 3-{[4-(methylsulphonyl)piperazin-1-yl]carbonyl}naphthalene-2,6-diol]	–
105 to 110 °C	–	–	CCCCS(=O)(=O)N1CCN(C(=O)c2cc3cc(O)ccc3cc2O)CC1 [Example 33, 3-{[4-(butylsulphonyl)piperazin-1-yl]carbonyl}naphthalene-2,6-diol]	–
